Target: T1, HDM2 (Homo sapiens, UniProt Q00987)
T1 construct: Thioredoxin (N); made in house; host or cells: E. coli strain BL21(DE3)Rosetta
Experiment: FRET assay (HDM2 inhibition; method not described in this part)
Assay type: binding
Settings: Table 2

T1 sequence (Q00987 17-125): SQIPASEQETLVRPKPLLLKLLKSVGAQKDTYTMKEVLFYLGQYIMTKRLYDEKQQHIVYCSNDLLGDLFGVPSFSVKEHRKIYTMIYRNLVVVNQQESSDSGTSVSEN

SMILES	IC50 [nM]
C[C@@H](Nc1nc(C(=O)O)nc2nc(-c3ccc(F)c(Cl)c3)n(Cc3ccc(C(F)(F)F)cc3)c12)C1CCC1 [Example 2.61, 8-(3-chloro-4-fluorophenyl)-6-{ [(1R)-1-cyclobutylethyl]amino}-7-[4-(trifluoromethyl)benzyl]-7H-purine-2-carboxylic acid]	22.7
Cc1cccc(C)c1-c1nc2nc(C(=O)O)nc(N[C@H](C)C3CC3)c2n1Cc1ccc(C(F)(F)F)cc1 [Example 2.62, 6-{[(1R)-1-cyclopropylethyl]amino}-8-(2,6-dimethylphenyl)-7-[4-(trifluoromethyl)benzyl]-7H-purine-2-carboxylic acid]	65.6
C[C@@H](Nc1nc(C(=O)O)nc2nc(-c3cc(Cl)ccc3Cl)n(Cc3ccc(C(F)(F)F)cc3)c12)C1CCC1 [Example 2.63, 6-{[(1R)-1-cyclobutylethyl]amino}-8-(2,5-dichlorophenyl)-7-[4-(trifluoromethyl)benzyl]-7H-purine-2-carboxylic acid]	10.9
COc1cc(C#N)cc(-c2nc3nc(C(=O)O)nc(N[C@H](C)C4CCC4)c3n2Cc2ccc(C(F)(F)F)cc2)c1 [Example 2.64, 8-(3-cyano-5-methoxyphenyl)-6-{[(1R)-1-cyclobutylethyl]amino}-7-[4-(trifluoromethyl)benzyl]-7H-purine-2-carboxylic acid]	89.1
Cc1cccc(-c2nc3nc(C(=O)O)nc(N[C@H](C)C4CC4)c3n2Cc2ccc(C(F)(F)F)cc2)c1F [Example 2.65, 6-{[(1R)-1-cyclopropylethyl]amino}-8-(2-fluoro-3-methylphenyl)-7-[4-(trifluoromethyl)benzyl]-7H-purine-2-carboxylic acid]	182
COc1ccc(-c2nc3nc(C(=O)O)nc(N[C@H](C)C4CC4)c3n2Cc2ccc(C(F)(F)F)cc2)cc1Cl [Example 2.66, 8-(3-chloro-4-methoxyphenyl)-6-{[(1R)-1-cyclopropylethyl]amino}-7-[4-(trifluoromethyl)benzyl]-7H-purine-2-carboxylic acid]	112
C[C@@H](Nc1nc(C(=O)O)nc2nc(-c3cccc(OC(F)F)c3)n(Cc3ccc(C(F)(F)F)cc3)c12)C1CCC1 [Example 2.67, 6-{[(1R)-1-cyclobutylethyl]amino}-8-[3-(difluoromethoxy)phenyl]-7-[4-(trifluoromethyl)benzyl]-7H-purine-2-carboxylic acid]	41.7
C[C@@H](Nc1nc(C(=O)O)nc2nc(-c3ccc(F)cc3F)n(Cc3ccc(C(F)(F)F)cc3)c12)C1CCC1 [Example 2.68, 6-{[(1R)-1-cyclobutylethyl]amino}-8-(2,4-difluorophenyl)-7-[4-(trifluoromethyl)benzyl]-7H-purine-2-carboxylic acid]	22.4
C[C@@H](Nc1nc(C(=O)O)nc2nc(-c3ccc4ncccc4c3)n(Cc3ccc(C(F)(F)F)cc3)c12)C1CC1 [Example 2.69, 6-{[(1R)-1-cyclopropylethyl]amino}-8-quinolin-6-yl-7-[4-(trifluoromethyl)benzyl]-7H-purine-2-carboxylic acid]	296
C[C@@H](Nc1nc(C(=O)O)nc2nc(-c3cnc(N(C)C)nc3)n(Cc3ccc(C(F)(F)F)cc3)c12)C1CC1 [Example 2.70, 6-{[(1R)-1-cyclopropylethyl]amino}-8-[2-(dimethylamino)pyrimidin-5-yl]-7-[4-(trifluoromethyl)benzyl]-7H-purine-2-carboxylic acid]	1020
COc1cc(-c2nc3nc(C(=O)O)nc(N[C@H](C)C4CC4)c3n2Cc2ccc(C(F)(F)F)cc2)ccn1 [Example 2.71, 6-{[(1R)-1-cyclopropylethyl]amino}-8-(2-methoxypyridin-4-yl)-7-[4-(trifluoromethyl)benzyl]-7H-purine-2-carboxylic acid]	589
CCOc1ccc(-c2nc3nc(C(=O)O)nc(N[C@H](C)C4CC4)c3n2Cc2ccc(C(F)(F)F)cc2)cn1 [Example 2.72, 6-{[(1R)-1-cyclopropylethyl]amino}-8-(6-ethoxypyridin-3-yl)-7-[4-(trifluoromethyl)benzyl]-7H-purine-2-carboxylic acid]	613
C[C@@H](Nc1nc(C(=O)O)nc2nc(-c3cccc(F)c3F)n(Cc3ccc(C(F)(F)F)cc3)c12)C1CC1 [Example 2.73, 6-{[(1R)-1-cyclopropylethyl]amino}-8-(2,3-difluorophenyl)-7-[4-(trifluoromethyl)benzyl]-7H-purine-2-carboxylic acid]	111
C[C@@H](Nc1nc(C(=O)O)nc2nc(-c3ccc4c(c3)CCC4)n(Cc3ccc(C(F)(F)F)cc3)c12)C1CC1 [Example 2.74, 6-{[(1R)-1-cyclopropylethyl]amino}-8-(2,3-dihydro-1H-inden-5-yl)-7-[4-(trifluoromethyl)benzyl]-7H-purine-2-carboxylic acid]	205
C[C@@H](Nc1nc(C(=O)O)nc2nc(-c3ccc(Br)cc3F)n(Cc3ccc(C(F)(F)F)cc3)c12)C1CC1 [Example 2.75, 8-(4-bromo-2-fluorophenyl)-6-{[(1R)-1-cyclopropylethyl]amino}-7-[4-(trifluoromethyl)benzyl]-7H-purine-2-carboxylic acid]	204
C[C@@H](Nc1nc(C(=O)O)nc2nc(-c3ccc(Cl)c(Cl)c3)n(Cc3ccc(C(F)(F)F)cc3)c12)C1CCC1 [Example 2.76, 6-{[(1R)-1-cyclobutylethyl]amino}-8-(3,4-dichlorophenyl)-7-[4-(trifluoromethyl)benzyl]-7H-purine-2-carboxylic acid]	20.4
C[C@@H](Nc1nc(C(=O)O)nc2nc(-c3ccncc3)n(Cc3ccc(C(F)(F)F)cc3)c12)C1CCC1 [Example 2.77, 6-{[(1R)-1-cyclobutylethyl]amino}-8-pyridin-4-yl-7-[4-(trifluoromethyl)benzyl]-7H-purine-2-carboxylic acid]	72.6
C[C@@H](Nc1nc(C(=O)O)nc2nc(-c3ccccc3C(N)=O)n(Cc3ccc(C(F)(F)F)cc3)c12)C1CC1 [Example 2.78, 8-(2-carbamoylphenyl)-6-{[(1R)-1-cyclopropylethyl]amino}-7-[4-(trifluoromethyl)benzyl]-7H-purine-2-carboxylic acid]	219
C[C@@H](Nc1nc(C(=O)O)nc2nc(-c3ccccc3C(F)(F)F)n(Cc3ccc(C(F)(F)F)cc3)c12)C1CCC1 [Example 2.79, 6-{[(1R)-1-cyclobutylethyl]amino}-7-[4-(trifluoromethyl)benzyl]-8-[2-(trifluoromethyl)phenyl]-7H-purine-2-carboxylic acid]	13.4
CCc1ccc(OC)cc1-c1nc2nc(C(=O)O)nc(N[C@H](C)C3CCC3)c2n1Cc1ccc(C(F)(F)F)cc1 [Example 2.80, 6-{[(1R)-1-cyclobutylethyl]amino} -8-(2-ethyl-5-methoxyphenyl)-7-[4-(trifluoromethyl)benzyl]-7H-purine-2-carboxylic acid]	11.1
CCc1ccccc1-c1nc2nc(C(=O)O)nc(N[C@H](C)C3CCC3)c2n1Cc1ccc(C(F)(F)F)cc1 [Example 2.81, 6-{[(1R)-1-cyclobutylethyl]amino} -8-(2-ethylphenyl)-7-[4-(trifluoromethyl)benzyl] - 7H-purine-2-carboxylic acid]	18
CCc1ccc(C)cc1-c1nc2nc(C(=O)O)nc(N[C@H](C)C3CCC3)c2n1Cc1ccc(C(F)(F)F)cc1 [Example 2.82, 6-{[(1R)-1-cyclobutylethyl]amino}-8-(2-ethyl-5-methylphenyl)-7-[4-(trifluoromethyl)benzyl]-7H-purine-2-carboxylic acid]	13.6
C[C@@H](Nc1nc(C(=O)O)nc2nc(-c3cnn(C)c3)n(Cc3ccc(C(F)(F)F)cc3)c12)C1CCC1 [Example 2.83, 6-{[(1R)-1-cyclobutylethyl]amino} -8-(1-methyl-1H-pyrazol-4-yl)-7-[4-(trifluoromethyl)benzyl] - 7H-purine-2-carboxylic acid]	189
Cc1noc(C)c1-c1nc2nc(C(=O)O)nc(N[C@H](C)C3CCC3)c2n1Cc1ccc(C(F)(F)F)cc1 [Example 2.84, 6-{[(1R)-1-cyclobutylethyl]amino} -8-(3,5-dimethylisoxazol-4-yl)-7-[4-(trifluoromethyl)benzyl] - 7H-purine-2-carboxylic acid]	79.4

Same assay, conditions: Table 3

SMILES	IC50 [nM]
C[C@@H](Nc1nc(C(=O)O)nc2nc(-c3nccn3C)n(Cc3ccc(C(F)(F)F)cc3)c12)C1CCC1 [Example 3.1, (R)-6-((1-cyclobutylethyl)amino)-8-(1-methyl-1H-imidazol-2-yl)-7-(4-(trifluoromethyl)benzyl)-7H-purine-2-carboxylic acid]	161
CC(C)c1ccnc(-c2nc3nc(C(=O)O)nc(N[C@H](C)C4CCC4)c3n2Cc2ccc(C(F)(F)F)cc2)n1 [Example 3.2, (R)-6-((1-cyclobutylethyl)amino)-8-(4-isopropylpyrimidin-2-yl)-7-(4-(trifluoromethyl)benzyl)-7H-purine-2-carboxylic acid]	22
CC(C)c1cnc(-c2nc3nc(C(=O)O)nc(N[C@H](C)C4CCC4)c3n2Cc2ccc(C(F)(F)F)cc2)s1 [Example 3.3, (R)-6-((1-cyclobutylethyl)amino)-8-(5-isopropylthiazol-2-yl)-7-(4-(trifluoromethyl)benzyl)-7H-purine-2-carboxylic acid]	57.9
C[C@@H](Nc1nc(C(=O)O)nc2nc(-c3ncccn3)n(Cc3ccc(C(F)(F)F)cc3)c12)C1CCC1 [Example 3.4, 6-{[(1R)-1-cyclobutylethyl]amino}-8-pyrimidin-2-yl-7-[4-(trifluoromethyl)benzyl] -7H-purine-2-carboxylic acid]	69.8
C[C@@H](Nc1nc(C(=O)O)nc2nc(-c3ncco3)n(Cc3ccc(C(F)(F)F)cc3)c12)C1CCC1 [Example 3.5, 6-{[(1R)-1-cyclobutylethyl]amino}-8-(1,3-oxazol-2-yl)-7-[4-(trifluoromethyl)benzyl] -7H-purine-2-carboxylic acid]	30
CC(C)c1csc(-c2nc3nc(C(=O)O)nc(N[C@H](C)C4CCC4)c3n2Cc2ccc(C(F)(F)F)cc2)n1 [Example 3.6, 6-{[(1R)-1-cyclobutylethyl]amino}-8-[4-(1-methylethyl)-1,3-thiazol-2-yl]-7-[4-(trifluoromethyl)benzyl] -7H-purine-2-carboxylic acid]	312
